Data taken from ChEMBL document CHEMBL1201862, “PubChem BioAssay data set” (2004).
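Compound exposure: 48 hours, 5 concentrations, 96-well plates. Here, GI50 denotes the concentration required for 50% inhibition of growth.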 Active and inactive are the calls of the source. Rule as the data show it: active = GI50 up to about 1.1 µM and inactive = higher.

Columns and labels:
Experiment in all cases: inhibition of tumour cell growth, NCI panel, 48 h
ACHN = test system: ACHN
CAKI-1 = test system: CAKI-1
HCC 2998 = test system: HCC 2998
HCT-116 = test system: HCT-116
HOP-62 = test system: HOP-62
HOP-92 = test system: HOP-92
HT-29 = test system: HT-29
KM12 = test system: KM12
LOX IMVI = test system: LOX IMVI
M19-MEL = test system: M19-MEL
MOLT-4 = test system: MOLT-4
Malme-3M = test system: Malme-3M
NCI-H226 = test system: NCI-H226
NCI-H522 = test system: NCI-H522
OVCAR-4 = test system: OVCAR-4
OVCAR-8 = test system: OVCAR-8
SK-MEL-28 = test system: SK-MEL-28
SK-OV-3 = test system: SK-OV-3

Measured: GI50

COc1ccc(COC2CC(OC)OC(C)C2OC(=O)c2ccccc2)cc1 (stereo not given)
inactive: ACHN 24.3 µM | CAKI-1 36.5 µM | HCC 2998 43.1 µM | HCT-116 28.6 µM | HOP-62 > 73.5 µM | HOP-92 50 µM | HT-29 16.6 µM | KM12 34.8 µM | LOX IMVI 22.6 µM | M19-MEL 34.5 µM | MOLT-4 15.6 µM | Malme-3M 29 µM | NCI-H226 21.7 µM | NCI-H522 30.6 µM | OVCAR-4 32.8 µM | OVCAR-8 31.6 µM | SK-MEL-28 41.2 µM | SK-OV-3 > 100 µM

Cc1cc(S(=O)(=O)O)c(NC(=O)C(=O)Cc2cc(=O)oc3cc(O)ccc23)cc1Cl
inactive: ACHN > 100 µM | CAKI-1 > 100 µM | HCC 2998 > 100 µM | HCT-116 > 100 µM | HOP-62 > 100 µM | HOP-92 > 100 µM | HT-29 > 100 µM | KM12 > 100 µM | LOX IMVI > 100 µM | M19-MEL > 100 µM | MOLT-4 > 100 µM | Malme-3M > 100 µM | NCI-H226 > 100 µM | NCI-H522 > 100 µM | OVCAR-4 > 100 µM | OVCAR-8 > 100 µM | SK-MEL-28 > 100 µM | SK-OV-3 > 100 µM

COc1cccc(C2CC23C(=O)NC(=O)NC3=O)c1 (stereo not given)
inactive: ACHN > 100 µM | CAKI-1 > 100 µM | HCC 2998 > 100 µM | HCT-116 > 100 µM | HOP-62 > 100 µM | HOP-92 > 100 µM | HT-29 > 100 µM | KM12 > 100 µM | LOX IMVI > 100 µM | M19-MEL > 100 µM | MOLT-4 > 100 µM | Malme-3M > 100 µM | NCI-H226 > 100 µM | NCI-H522 > 100 µM | OVCAR-4 > 100 µM | OVCAR-8 > 100 µM | SK-MEL-28 > 100 µM | SK-OV-3 > 100 µM

C=C(CCCCC)CN1CCCC1C(C)=O (stereo not given)
inactive: ACHN 25.5 µM | CAKI-1 34.7 µM | HCC 2998 32.4 µM | HCT-116 27.6 µM | HOP-62 22.3 µM | HOP-92 20.3 µM | HT-29 29.6 µM | KM12 33 µM | LOX IMVI 18.8 µM | M19-MEL 28.9 µM | MOLT-4 8.75 µM | Malme-3M 41.8 µM | NCI-H226 22 µM | NCI-H522 11.4 µM | OVCAR-4 4.45 µM | OVCAR-8 28.6 µM | SK-MEL-28 57.3 µM | SK-OV-3 31.2 µM

CC1=CCP(C(F)(F)F)P(C(F)(F)F)C1 (stereo not given)
inactive: ACHN > 100 µM | CAKI-1 > 100 µM | HCC 2998 > 100 µM | HCT-116 > 100 µM | HOP-62 > 100 µM | HOP-92 > 100 µM | HT-29 > 100 µM | KM12 > 100 µM | LOX IMVI > 100 µM | M19-MEL > 100 µM | MOLT-4 > 100 µM | Malme-3M > 100 µM | NCI-H226 > 100 µM | NCI-H522 > 100 µM | OVCAR-4 > 100 µM | OVCAR-8 > 100 µM | SK-MEL-28 > 100 µM | SK-OV-3 > 100 µM

Cn1cc(C(=O)c2ccccc2)cc(C(=O)c2ccccc2)c1=O
inactive: ACHN > 100 µM | CAKI-1 > 100 µM | HCC 2998 > 100 µM | HOP-62 > 100 µM | HOP-92 > 100 µM | HT-29 > 100 µM | KM12 > 100 µM | LOX IMVI > 100 µM | M19-MEL > 100 µM | MOLT-4 > 100 µM | Malme-3M > 100 µM | NCI-H226 > 100 µM | NCI-H522 > 100 µM | OVCAR-4 > 100 µM | OVCAR-8 > 100 µM | SK-MEL-28 > 100 µM | SK-OV-3 > 100 µM

CCOP(=O)(OCC)C1=NC=CC=CC1n1c(-c2ccccc2)nn(CC)c1=O (stereo not given)
inactive: ACHN > 100 µM | CAKI-1 > 100 µM | HCC 2998 > 100 µM | HCT-116 > 100 µM | HOP-62 > 100 µM | HOP-92 7.06 µM | HT-29 > 100 µM | KM12 > 100 µM | LOX IMVI > 100 µM | M19-MEL > 100 µM | MOLT-4 > 100 µM | Malme-3M > 100 µM | NCI-H226 > 100 µM | NCI-H522 > 100 µM | OVCAR-8 > 100 µM | SK-MEL-28 > 100 µM | SK-OV-3 > 100 µM

CCOC(=O)/C(=C/c1cccc(Cl)c1)N(CC)CC
inactive: ACHN 35.5 µM | CAKI-1 50.5 µM | HCC 2998 79.1 µM | HCT-116 37.4 µM | HOP-62 29.9 µM | HOP-92 25.5 µM | HT-29 > 100 µM | KM12 39.1 µM | LOX IMVI 81.8 µM | M19-MEL 88.7 µM | MOLT-4 87.7 µM | Malme-3M 57.3 µM | NCI-H226 37.8 µM | NCI-H522 24.3 µM | OVCAR-4 47.1 µM | OVCAR-8 42.2 µM | SK-MEL-28 90.8 µM | SK-OV-3 35.1 µM

Cc1nc(Nc2ccc(Cl)cc2)sc1C(=O)Nc1cccc2c(=O)[nH][nH]c(=O)c12
inactive: ACHN 20.9 µM | CAKI-1 33.2 µM | HCC 2998 39.5 µM | HCT-116 24 µM | HOP-62 35.6 µM | HOP-92 13.3 µM | HT-29 16.8 µM | KM12 51.8 µM | LOX IMVI 13.6 µM | M19-MEL 30.3 µM | MOLT-4 19 µM | Malme-3M 36 µM | NCI-H226 83.6 µM | NCI-H522 23.5 µM | OVCAR-4 49.4 µM | OVCAR-8 > 100 µM | SK-MEL-28 52.4 µM | SK-OV-3 52.6 µM

NNC(=S)N/N=C(/C(=O)Nc1ccc([N+](=O)[O-])cc1)c1nc2ccc([N+](=O)[O-])cc2nc1O
inactive: ACHN 95.3 µM | CAKI-1 > 100 µM | HCC 2998 > 100 µM | HCT-116 > 100 µM | HOP-92 > 100 µM | HT-29 > 100 µM | KM12 > 100 µM | LOX IMVI > 100 µM | M19-MEL > 100 µM | MOLT-4 > 100 µM | Malme-3M > 100 µM | NCI-H226 > 100 µM | NCI-H522 36.5 µM | OVCAR-4 > 100 µM | OVCAR-8 > 100 µM | SK-MEL-28 > 100 µM | SK-OV-3 > 100 µM

O=C(O)CCCCCO
inactive: ACHN > 100 µM | CAKI-1 > 100 µM | HCC 2998 > 100 µM | HCT-116 > 100 µM | HOP-62 > 100 µM | HOP-92 > 100 µM | HT-29 > 100 µM | KM12 > 100 µM | LOX IMVI > 100 µM | M19-MEL > 100 µM | MOLT-4 > 100 µM | Malme-3M > 100 µM | NCI-H226 > 100 µM | NCI-H522 > 100 µM | OVCAR-4 > 100 µM | OVCAR-8 > 100 µM | SK-MEL-28 > 100 µM | SK-OV-3 > 100 µM
